# Test results: publication PMC7915902, “Preclinical Evaluation of [^18F]FACH in Healthy Mice and Piglets: An ^18F-Labeled Ligand for Imaging of Monocarboxylate Transporters with PET” (International Journal of Molecular Sciences, 2021)
# Experiments:
# plasma protein [1] = assay: Plasma protein binding ex vivo (ultrafiltration); type: in vitro ADME; details: mouse plasma, 70 min after i.v. injection
# Experimental: (§1) To measure plasma protein binding in vitro, a 1 mL portion of piglet plasma was incubated with 4.9 MBq [^18F]FACH (10 µL) on a shaker (400 rpm) for 20 min at 37 °C. The plasma protein binding was also measured ex vivo in 10 µL portions of mouse plasma from retro-orbital blood samples collected 70 min after intravenous (i.v.) injection of 3.7 MBq [^18F]FACH via a tail vein. The free and bound fractions of [^18F]FACH were separated by centrifugation at room temperature (2000 g for ten minutes, Centrifree® YM-30, Ultrafiltration Device; Merck KGaA, Darmstadt, Germany). Radioactivity was measured in aliquots of ultrafiltrate and in prefiltration plasma samples, using a Wizard 2470 γ-counter (PerkinElmer LAS, Rodgau, Germany), and the free fraction in the plasma (fp) calculated from the concentration ratio.
# plasma protein [2] = assay: Plasma protein binding in vitro (ultrafiltration); type: in vitro ADME, piglet; details: pig plasma, 20 min at 37 °C
# Experimental: as §1
# MCTs [3] = assay: Dynamic PET/MRI in mice with pre-treatment; type: in vivo, mouse; details: mice, PET
# Experimental: The biodistribution of [^18F]FACH in mice was assessed by small animal PET (Nanoscan, Mediso, Budapest, Hungary) with dynamic 60 min emission recordings, followed by T1 weighted GRE MR (TR = 15.0 ms, TE = 2.4 ms, FA = 25°) imaging for anatomical correlations and attenuation correction. The mice (n = 20) weighing 32.2 ± 2.9 g were anaesthetised with 2% isoflurane in 60% oxygen, and placed on a thermostatically heated animal bed. The animals then received i.v. injections of 0.9% saline (control), reference compound (10 mg/kg), or α-CCA-Na (25 mg/kg) ten min prior or 20 min after (displacement studies) [^18F]FACH administration (2.3–8.6 MBq, 0.5–11.2 nmol/kg). List mode PET data were binned as a series of attenuation-corrected sinogram frames (12 × 10 s, 6 × 30 s, 5 × 60 s and 10 × 300 s) and were reconstructed by Ordered Subset Expectation Maximization (OSEM3D) with four iterations, six subsets and a voxel size of 0.4 mm³ (Nucline v2.01, Mediso).
# (§2) The analysis of reconstructed datasets was performed with PMOD software (v4.103, PMOD Technologies LLC, Zurich, Switzerland).
# (§3) Data are shown in mean ± standard deviation (SD). Group differences were tested by Student’s t-test, with p < 0.05 designated as significant. Area Under the Curves (AUCs) and corresponding 95% confidence intervals (CI95%s) were calculated with GraphPad Prism (v.8.2) following the assumptions described by Gagnon et al..
# MCTs [4] = type: in vivo, piglet; details: pig, in vivo
# Experimental: The piglets (n = 6) were inititally anaesthetised with intramuscular injections of stresnil and ursotamin, and anaesthesia was maintained with intravenous ursotamin and midazolam, as required. The hematocrit was measured in an ear vein blood sample collected just prior to imaging. Either saline (n = 3) or 25 mg/kg α-CCA-Na (n = 3) in saline was administrated ten min before i.v. administration of [^18F]FACH (261–327 MBq, corresponding to 218–852 pmol/kg) via an ear vein. Imaging was performed with a simultaneous hybrid PET/MR system (mMR Biograph; Siemens, Erlangen, Germany) equipped with dedicated phased-array surface. PET data were reconstructed into a 128 × 128 matrix (voxel size: 1.40 × 1.40 × 2.03 mm^3) using the built-in OSEM3D algorithm with eight iterations, 21 subsets, and a 3-mm Gaussian filter. The attenuation and decay corrected dynamic sequence consisted of 32 frames as follows: 1 × 15, 11 × 30, 1 × 45, 5 × 60, 1 × 90, 5 × 120, 1 × 180, 4 × 240, 1 × 300, 2 × 360 s, whereas activity concentrations in VOIs are represented in units of SUV or percentage of injected dose (%/ID). After completing the dynamic PET recording, piglets were euthanized with an i.v. overdose of T61 (Intervet Deutschland GmbH, Unterschleißheim, Germany) and tissues were sampled for radio-metabolism studies in selected animals.
# as §2, §3
# MCT1 [5] = target: T1, MCT1 (Mus musculus, UniProt P53986); assay: MCT1 specific cell uptake of [18F]FACH in 4T1 cells; type: cell-based; details: control (vehicle), 30 min incubation, 37 °C, pH 7.4
# T1 construct: endogenous in cells; host or cells: 4T1 cells (murine triple negative breast cancer), a gift from István Krizbai's group
# T1 sequence (P53986 1-493): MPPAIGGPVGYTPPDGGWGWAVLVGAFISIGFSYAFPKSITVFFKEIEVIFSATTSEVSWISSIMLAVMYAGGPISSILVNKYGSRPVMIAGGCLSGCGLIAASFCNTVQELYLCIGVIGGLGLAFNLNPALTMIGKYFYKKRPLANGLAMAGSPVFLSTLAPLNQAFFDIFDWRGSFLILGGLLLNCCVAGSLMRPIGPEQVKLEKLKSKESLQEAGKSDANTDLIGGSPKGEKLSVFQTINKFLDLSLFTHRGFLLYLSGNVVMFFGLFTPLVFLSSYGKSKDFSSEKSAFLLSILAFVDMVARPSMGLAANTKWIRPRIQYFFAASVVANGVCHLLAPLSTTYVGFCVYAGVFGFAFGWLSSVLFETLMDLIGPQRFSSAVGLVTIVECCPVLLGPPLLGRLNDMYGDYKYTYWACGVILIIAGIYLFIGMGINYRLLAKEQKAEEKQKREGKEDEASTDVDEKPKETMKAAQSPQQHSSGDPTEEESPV
# T1 sequence (P18572 140-389 partner limits assumed): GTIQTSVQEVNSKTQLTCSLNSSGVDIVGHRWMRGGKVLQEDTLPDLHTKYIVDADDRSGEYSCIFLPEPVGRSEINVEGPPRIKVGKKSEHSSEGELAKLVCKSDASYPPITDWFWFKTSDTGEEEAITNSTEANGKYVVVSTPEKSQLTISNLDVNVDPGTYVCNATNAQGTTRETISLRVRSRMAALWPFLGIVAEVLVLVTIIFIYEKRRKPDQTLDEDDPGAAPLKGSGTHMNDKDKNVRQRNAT
# MCT1 [6] = tested on: MCT1; design: method as in PMID 31017677; details: L-[14C]lactate uptake, rat brain endothelial cells; read-out: IC50 towards MCT1; cited from earlier work
# [7] = design: method as in PMID 32357571; details: from dosimetry studies in piglets; cited from earlier work
smiles,measurement,setting,value
"CCCN(CCC[18F])c1ccc(/C=C(\C#N)C(=O)O)c(OC)c1 [[^18F]FACH, (E)-2-cyano-3-{4-[(3-[^18F]fluoropropyl)(propyl)amino]-2-methoxyphenyl}acrylic acid]",free plasma fraction (fp),plasma protein [1],0.07
same,free plasma fraction (fp),plasma protein [2],0.03
same,peak TAC SUV whole blood,"MCTs [3]; left heart ventricle VOI, all three treatment groups",6.8 ± 1.3
same,AUC0–60 min gall bladder,MCTs [3]; vehicle pre-treatment,481 SUV min
same,AUC0–60 min kidney cortex,MCTs [3]; vehicle pre-treatment,290 SUV min
same,AUC0–60 min liver,MCTs [3]; vehicle pre-treatment,450 SUV min
same,AUC0–60 min small intestine,MCTs [3]; vehicle pre-treatment,99 SUV min
same,AUC0–60 min whole blood,MCTs [3]; vehicle pre-treatment,59 SUV min
same,peak TAC SUV kidney cortex,MCTs [4],15.3 ± 2.5
same,peak TAC SUV kidney medulla,MCTs [4],66.1 ± 27.7
same,peak TAC SUV liver,MCTs [4],13.2 ± 2.7
same,cell-associated radioactivity,MCT1 [5],4.7 %ID/mg protein
same,IC50,MCT1 [6],11 nM
same,predicted effective radiation dose for humans,[7],about 2 mSv/100 MBq
